Experimental data from PubChem BioAssay (NCI).
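Where inhibition never reached the appropriate level, the endpoint shown equals the highest concentration tested. Otherwise, values were interpolated linearly from a five-concentration, 48-hour dose response in 96-well plates. At the GI50, growth is halved. TGI denotes the concentration required for complete inhibition of growth.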

Legend:
Experiment in all cases: NCI-60 cell line screen, 48 h
[1] = system: HOP-92 NSCLC
[2] = system: HCC-2998 colon
[3] = system: SK-MEL-2 melanoma
[4] = system: UACC-257 melanoma
[5] = system: SK-MEL-5 melanoma
[6] = system: LOX IMVI melanoma
[7] = system: NCI/ADR-RES ovarian
[8] = system: SF-295 CNS
[9] = system: NCI-H226 lung
[10] = system: HCT-116 colon
[11] = system: ACHN renal
[12] = system: SF-539 CNS
[13] = system: SW-620 colon
[14] = system: NCI-H522 lung
[15] = system: CCRF-CEM leukemia
[16] = system: RXF 393 renal
[17] = system: UO-31 renal
[18] = system: SNB-19 CNS
[19] = system: MDA-MB-231 breast
[20] = system: SK-MEL-28 melanoma
[21] = system: NCI-H460 lung
[22] = system: K-562 leukemia
[23] = system: COLO 205 colon
[24] = system: BT-549 breast
[25] = system: TK-10 renal
[26] = system: KM12 colon
[27] = system: EKVX NSCLC
[28] = system: IGROV1 ovarian
[29] = system: 786-0 renal
[30] = system: RPMI-8226 leukemia
[31] = system: SK-OV-3 ovarian
[32] = system: UACC-62 melanoma
[33] = system: T-47D breast
[34] = system: CAKI-1 renal
[35] = system: HOP-62 NSCLC
[36] = system: HT29 colon
[37] = system: SNB-75 CNS
[38] = system: OVCAR-4 ovarian
[39] = system: MALME-3M melanoma
[40] = system: HL-60(TB) leukemia
[41] = system: OVCAR-5 ovarian
[42] = system: OVCAR-8 ovarian
[43] = system: DU-145 prostate
[44] = system: MCF7 breast
[45] = system: U251 CNS
[46] = system: HS 578T breast
[47] = system: OVCAR-3 ovarian
[48] = system: MOLT-4 leukemia
[49] = system: PC-3 prostate
[50] = system: SF-268 CNS
[51] = system: A549 NSCLC
[52] = system: NCI-H23 lung
[53] = system: SN12C renal
[54] = system: MDA-MB-435
[55] = system: HCT-15 colon
[56] = system: M14 melanoma
[57] = system: A498 renal
[58] = system: SR leukemia

Cc1ccc(NS(=O)(=O)c2ccc(-c3cnc(C4CC4)o3)cc2)cc1C gave a GI50 [1] of 308 nM, a TGI [1] of 3350 nM and a GI50 [2] of 1570 nM. It also gave a TGI [2] of over 32800 nM, a GI50 [3] of 797 nM and a TGI [3] of 14.4 µM. It also gave a GI50 [4] of 836 nM, a TGI [4] of 9.55 µM and a GI50 [5] of 390 nM. The TGI [5] was 1700 nM, the GI50 [6] was 524 nM and the TGI [6] was over 32300 nM. The GI50 [7] was 407 nM, the TGI [7] was over 41800 nM and the GI50 [8] was 407 nM. The TGI [8] was 3470 nM, the GI50 [9] was 843 nM and the TGI [9] was over 28400 nM. The GI50 [10] was 394 nM, the TGI [10] was 10.8 µM and the GI50 [11] was 673 nM. For the same compound, the TGI [11] was over 33900 nM, the GI50 [12] was 366 nM and the TGI [12] was 1770 nM. For the same compound, the GI50 [13] was 341 nM, the TGI [13] was over 72200 nM and the GI50 [14] was 267 nM. The TGI [14] was 3280 nM, the GI50 [15] was 433 nM and the TGI [15] was over 59300 nM. The GI50 [16] was 338 nM, the TGI [16] was 3890 nM and the GI50 [17] was 839 nM. For the same compound, the TGI [17] was 7.74 µM, the GI50 [18] was 522 nM and the TGI [18] was over 63800 nM. For the same compound, the GI50 [19] was 797 nM, the TGI [19] was 15.9 µM and the GI50 [20] was 1260 nM. For the same compound, the TGI [20] was over 45400 nM, the GI50 [21] was 481 nM and the TGI [21] was 11.5 µM. It also gave a GI50 [22] of under 37.3 nM, a TGI [22] of over 68400 nM and a GI50 [23] of 464 nM. It also gave a TGI [23] of 1840 nM, a GI50 [24] of 715 nM and a TGI [24] of 13.7 µM. It also gave a GI50 [25] of 1440 nM, a TGI [25] of 8.03 µM and a GI50 [26] of 279 nM. The TGI [26] was over 32600 nM, the GI50 [27] was 713 nM and the TGI [27] was over 45400 nM. For the same compound, the GI50 [28] was 593 nM, the TGI [28] was over 43300 nM and the GI50 [29] was 544 nM. It also gave a TGI [29] of over 37800 nM, a GI50 [30] of 450 nM and a TGI [30] of over 25400 nM. For the same compound, the GI50 [31] was 0.917 µM, the TGI [31] was over 29.1 µM and the GI50 [32] was 383 nM. It also gave a TGI [32] of over 38000 nM, a GI50 [33] of 373 nM and a TGI [33] of 16.7 µM. It also gave a GI50 [34] of 385 nM, a TGI [34] of over 42100 nM and a GI50 [35] of 557 nM. The TGI [35] was over 40100 nM, the GI50 [36] was 330 nM and the TGI [36] was 1570 nM. For the same compound, the GI50 [37] was 184 nM, the TGI [37] was 823 nM and the GI50 [38] was 912 nM. For the same compound, the TGI [38] was 10.4 µM, the GI50 [39] was 683 nM and the TGI [39] was 18.1 µM. It also gave a GI50 [40] of 259 nM, a TGI [40] of 1460 nM and a GI50 [41] of 1310 nM. The TGI [41] was over 38800 nM, the GI50 [42] was 916 nM and the TGI [42] was over 55900 nM. The GI50 [43] was 972 nM, the TGI [43] was over 68700 nM and the GI50 [44] was 279 nM. For the same compound, the GI50 [45] was 458 nM, the TGI [45] was over 33900 nM and the GI50 [46] was 450 nM. For the same compound, the TGI [46] was 5.77 µM, the GI50 [47] was 342 nM and the TGI [47] was 12.5 µM. The GI50 [48] was 583 nM, the TGI [48] was over 52700 nM and the GI50 [49] was 432 nM. The TGI [49] was over 27600 nM, the GI50 [50] was 1110 nM and the TGI [50] was over 36800 nM. The GI50 [51] was 751 nM, the TGI [51] was over 49200 nM and the GI50 [52] was 1130 nM. For the same compound, the TGI [52] was over 57800 nM, the GI50 [53] was 711 nM and the TGI [53] was over 34000 nM. For the same compound, the GI50 [54] was under 25.2 nM, the TGI [54] was 2460 nM and the GI50 [55] was 302 nM. The TGI [55] was over 33200 nM, the GI50 [56] was 375 nM and the TGI [56] was 11.8 µM. For the same compound, the GI50 [57] was 228 nM, the TGI [57] was 932 nM and the GI50 [58] was 476 nM. It also gave a TGI [58] of over 100 µM.

Work on CN1CCN(Cc2ccc(NC(=O)c3nc4ccc5[nH]ncc5c4c4c3CCCC4)cc2C(F)(F)F)CC1 yielded a GI50 [1] of 653 nM, a TGI [1] of 1350 nM and a GI50 [2] of 867 nM. It also gave a TGI [2] of 1630 nM, a GI50 [3] of 1030 nM and a TGI [3] of 2.2 µM. The GI50 [4] was 920 nM, the TGI [4] was 1.84 µM and the GI50 [5] was 852 nM. The TGI [5] was 1540 nM, the GI50 [6] was 846 nM and the TGI [6] was 1550 nM. For the same compound, the GI50 [7] was 847 nM, the TGI [7] was 1580 nM and the GI50 [8] was 879 nM. The TGI [8] was 1650 nM, the GI50 [9] was 862 nM and the TGI [9] was 1770 nM. It also gave a GI50 [10] of 855 nM, a TGI [10] of 1.71 µM and a GI50 [11] of 862 nM. The TGI [11] was 1550 nM, the GI50 [12] was 831 nM and the TGI [12] was 1540 nM. It also gave a GI50 [13] of 892 nM, a TGI [13] of 1740 nM and a GI50 [14] of 922 nM. The TGI [14] was 1860 nM, the GI50 [15] was 1120 nM and the TGI [15] was 2990 nM. For the same compound, the GI50 [16] was 806 nM, the TGI [16] was 1530 nM and the GI50 [17] was 785 nM. It also gave a TGI [17] of 1.48 µM, a GI50 [18] of 868 nM and a TGI [18] of 1620 nM. For the same compound, the GI50 [19] was 880 nM, the TGI [19] was 1.65 µM and the GI50 [20] was 862 nM. It also gave a TGI [20] of 1580 nM, a GI50 [21] of 906 nM and a TGI [21] of 1.74 µM. The GI50 [22] was 701 nM, the TGI [22] was 1960 nM and the GI50 [23] was 880 nM. For the same compound, the TGI [23] was 1730 nM, the GI50 [24] was 2130 nM and the TGI [24] was 4.24 µM. For the same compound, the GI50 [25] was 846 nM, the TGI [25] was 1.62 µM and the GI50 [26] was 860 nM. The TGI [26] was 1610 nM, the GI50 [27] was 802 nM and the TGI [27] was 1530 nM. It also gave a GI50 [28] of 883 nM, a TGI [28] of 1670 nM and a GI50 [29] of 895 nM. It also gave a TGI [29] of 1730 nM, a GI50 [30] of 1110 nM and a TGI [30] of 2690 nM. The GI50 [31] was 7.08 µM, the TGI [31] was 14 µM and the GI50 [32] was 905 nM. The TGI [32] was 1740 nM, the GI50 [33] was 926 nM and the TGI [33] was 2.03 µM. The GI50 [34] was 816 nM, the TGI [34] was 1530 nM and the GI50 [35] was 967 nM. It also gave a TGI [35] of 1920 nM, a GI50 [36] of 894 nM and a TGI [36] of 1810 nM. For the same compound, the GI50 [37] was 770 nM, the TGI [37] was 1490 nM and the GI50 [38] was 861 nM. The TGI [38] was 1.67 µM, the GI50 [39] was 764 nM and the TGI [39] was 1.53 µM. For the same compound, the GI50 [40] was 943 nM, the TGI [40] was 2020 nM and the GI50 [41] was 843 nM. For the same compound, the TGI [41] was 1580 nM, the GI50 [42] was 998 nM and the TGI [42] was 2080 nM. For the same compound, the GI50 [43] was 902 nM, the TGI [43] was 1630 nM and the GI50 [44] was 848 nM. It also gave a TGI [44] of 1690 nM, a GI50 [45] of 909 nM and a TGI [45] of 1780 nM. The GI50 [46] was 922 nM, the TGI [46] was 1.97 µM and the GI50 [47] was 868 nM. For the same compound, the TGI [47] was 1.6 µM, the GI50 [48] was 995 nM and the TGI [48] was 2390 nM. It also gave a GI50 [49] of 866 nM, a TGI [49] of 1660 nM and a GI50 [50] of 865 nM. It also gave a TGI [50] of 1700 nM, a GI50 [51] of 890 nM and a TGI [51] of 1790 nM. For the same compound, the GI50 [52] was 901 nM, the TGI [52] was 1740 nM and the GI50 [53] was 877 nM. The TGI [53] was 1650 nM, the GI50 [54] was 841 nM and the TGI [54] was 1560 nM. The GI50 [55] was 792 nM, the TGI [55] was 1520 nM and the GI50 [56] was 902 nM. For the same compound, the TGI [56] was 1.77 µM, the GI50 [57] was 977 nM and the TGI [57] was 2320 nM. The GI50 [58] was 469 nM and the TGI [58] was 3.48 µM.
